Measured values: patent publication US20220175766A1, “COMPOSITIONS AND METHODS OF TREATMENT” (GB004, Inc., priority 2019, published 2022)
Where two headings read alike, the source gives them in different places.

Columns and labels:
[1] = Compound 1 pH-solubility at 22° C.; format: physicochemical; details: thermodynamic from solid
Excerpt: The solubility of Compound 1 at various pH's was investigated.

[2] = Dispersion of Compound 1⋅HCl in stirred water with or without poloxamer 188; format: physicochemical; details: 0.25 g in 50 mL water, in the presence of poloxamer 188 (0.25 g) vs without
Description: Compound 1⋅HCl (0.25 g) was added to each of two stirred beakers containing water (50 mL), one also containing poloxamer 188 (0.25 g). The dispersion of Compound 1 throughout the beaker was higher in the presence of Poloxamer 188.

[3] = format: physicochemical
Description: Binary mixtures of Compound 1 HCl salt (prepared according to Example 2.1) and excipient were stored at 40° C. and 75% RH for 4 weeks and analysed at weekly intervals for appearance, moisture content (KF) and HPLC purity of Compound 1, with the excipients studied being microcrystalline cellulose, silicified microcrystalline cellulose, lactose, crospovidone, croscarmellose sodium, sodium starch glycolate, magnesium stearate, sodium stearyl fumarate, red iron oxide, blue #2, eudragit, polyvinylpyrrolidone, HPMC-AS, anhydrous citric acid and HPMC.

CC(C)(C)OC(=O)N1CCN(Cc2ccn(Cc3ccc(Cl)cc3)c(=O)c2O)CC1.Cl [Compound 1 HCl salt]
solubility ([1]; citrate buffer, aqueous buffer, pH 3 (Citrate 25 mM, l = 0.1), pH 3.0, 22° C.): 600 µg/mL | solubility ([1]; simulated gastric fluid, 0.1M HCl, pH 1.3, 22° C.): 1810 µg/mL | solubility ([1]; Water (1 mg/ml load), pH 3.1, 22° C.): 550 µg/mL | solubility ([1]; Water (5 mg/ml load), pH 2.2, 22° C.): 2070 µg/mL | Dispersion of Compound 1 throughout the beaker [2]: higher | Stability on storage ([3]; 40° C. and 75% RH for 4 weeks): stable | Appearance of binary mixture ([3]; binary mixture with citric acid, 40° C. and 75% RH, after 1 week): liquefied | API purity by HPLC ([3]; binary mixture with citric acid, 40° C. and 75% RH, after 4 weeks): 34.1% | Total impurities ([3]; binary mixture with microcrystalline cellulose, 40° C. and 75% RH, after 4 weeks): 0.51% | Total impurities ([3]; binary mixture with silicified microcrystalline cellulose, 40° C. and 75% RH, after 4 weeks): 0.69%
